According to PubChem BioAssay (NCI):
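48-hour exposure; five concentrations; linearly interpolated endpoints. TGI is the concentration that stops growth completely.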

Key:
Experiment in all cases: NCI tumour cell line growth inhibition, 48 h
[1] = test system: 786-0 renal
[2] = test system: A498 renal
[3] = test system: A549 NSCLC
[4] = test system: ACHN renal
[5] = test system: BT-549 breast
[6] = test system: CAKI-1 renal
[7] = test system: CCRF-CEM leukemia
[8] = test system: COLO 205 colon
[9] = test system: DU-145 prostate
[10] = test system: EKVX NSCLC
[11] = test system: HCC-2998 colon
[12] = test system: HCT-116 colon
[13] = test system: HCT-15 colon
[14] = test system: HL-60(TB) leukemia
[15] = test system: HOP-62 NSCLC
[16] = test system: HOP-92 NSCLC
[17] = test system: HS 578T breast
[18] = test system: HT29 colon
[19] = test system: IGROV1 ovarian
[20] = test system: K-562 leukemia
[21] = test system: KM12 colon
[22] = test system: LOX IMVI melanoma
[23] = test system: M14 melanoma
[24] = test system: MALME-3M melanoma
[25] = test system: MCF7 breast
[26] = test system: MDA-MB-231 breast
[27] = test system: MDA-MB-435
[28] = test system: MDA-N
[29] = test system: MOLT-4 leukemia
[30] = test system: NCI-H226 lung
[31] = test system: NCI-H23 lung
[32] = test system: NCI-H460 lung
[33] = test system: NCI-H522 lung
[34] = test system: NCI/ADR-RES ovarian
[35] = test system: OVCAR-3 ovarian
[36] = test system: OVCAR-4 ovarian
[37] = test system: OVCAR-5 ovarian
[38] = test system: OVCAR-8 ovarian
[39] = test system: PC-3 prostate
[40] = test system: RPMI-8226 leukemia
[41] = test system: RXF 393 renal
[42] = test system: SF-268 CNS
[43] = test system: SF-295 CNS
[44] = test system: SF-539 CNS
[45] = test system: SK-MEL-2 melanoma
[46] = test system: SK-MEL-28 melanoma
[47] = test system: SK-MEL-5 melanoma
[48] = test system: SK-OV-3 ovarian
[49] = test system: SN12C renal
[50] = test system: SNB-19 CNS
[51] = test system: SNB-75 CNS
[52] = test system: SR leukemia
[53] = test system: SW-620 colon
[54] = test system: T-47D breast
[55] = test system: TK-10 renal
[56] = test system: U251 CNS
[57] = test system: UACC-257 melanoma
[58] = test system: UACC-62 melanoma
[59] = test system: UO-31 renal

## N=c1c2c(=S)n(-c3ccccc3)c(=S)n(-c3ccccc3)c2nc(SCCN2CCOCC2)n1-c1ccccc1
[1]
  TGI: 3.14 µM
[2]
  TGI: 8.96 µM
[3]
  TGI: 3.36 µM
[4]
  TGI: 3.5 µM
[5]
  TGI: 4.51 µM
[6]
  TGI: 3.99 µM
[7]
  TGI: 3.19 µM
[8]
  TGI: 3.66 µM
[9]
  TGI: 3.22 µM
[10]
  TGI: 9.58 µM
[11]
  TGI: 3.24 µM
[12]
  TGI: 3.45 µM
[13]
  TGI: 4.09 µM
[14]
  TGI: 3.31 µM
[15]
  TGI: 4.96 µM
[16]
  TGI: 4.12 µM
[17]
  TGI: > 100 µM
[18]
  TGI: 4.03 µM
[19]
  TGI: 3.36 µM
[20]
  TGI: 4.18 µM
[21]
  TGI: 6.09 µM
[22]
  TGI: 3.71 µM
[23]
  TGI: 3.8 µM
[24]
  TGI: 3.49 µM
[25]
  TGI: > 100 µM
[26]
  TGI: 4.73 µM
[27]
  TGI: 3.4 µM
[28]
  TGI: 4.99 µM
[29]
  TGI: 3.75 µM
[30]
  TGI: 15.5 µM
[31]
  TGI: 7.02 µM
[32]
  TGI: 5.96 µM
[33]
  TGI: 3.16 µM
[34]
  TGI: 14.6 µM
[35]
  TGI: 3.3 µM
[36]
  TGI: 3.4 µM
[37]
  TGI: 33.9 µM
[38]
  TGI: 4.51 µM
[39]
  TGI: 3.35 µM
[40]
  TGI: 3.97 µM
[41]
  TGI: 3.55 µM
[42]
  TGI: 4.41 µM
[43]
  TGI: 19.2 µM
[44]
  TGI: 8.83 µM
[45]
  TGI: 8.17 µM
[46]
  TGI: 4.39 µM
[47]
  TGI: 6.66 µM
[48]
  TGI: 15 µM
[49]
  TGI: 3.71 µM
[50]
  TGI: 24 µM
[51]
  TGI: 4.54 µM
[52]
  TGI: 2.79 µM
[53]
  TGI: 3.96 µM
[54]
  TGI: 8.03 µM
[55]
  TGI: 3.1 µM
[56]
  TGI: 3.93 µM
[57]
  TGI: 4.28 µM
[58]
  TGI: 3.29 µM

## CC1(C)CCC(=O)NC1CC(=O)CC1NC(=O)CCC1(C)C (configuration not stated)
[1]
  TGI: > 100 µM
[2]
  TGI: > 100 µM
[3]
  TGI: > 100 µM
[4]
  TGI: > 100 µM
[5]
  TGI: > 100 µM
[6]
  TGI: > 100 µM
[7]
  TGI: > 100 µM
[8]
  TGI: > 100 µM
[9]
  TGI: > 100 µM
[10]
  TGI: > 100 µM
[11]
  TGI: > 100 µM
[12]
  TGI: > 100 µM
[13]
  TGI: > 100 µM
[14]
  TGI: > 100 µM
[15]
  TGI: > 100 µM
[16]
  TGI: > 100 µM
[17]
  TGI: > 100 µM
[18]
  TGI: > 100 µM
[19]
  TGI: > 100 µM
[20]
  TGI: > 100 µM
[21]
  TGI: > 100 µM
[22]
  TGI: > 100 µM
[23]
  TGI: > 100 µM
[24]
  TGI: > 100 µM
[25]
  TGI: > 100 µM
[26]
  TGI: > 100 µM
[27]
  TGI: > 100 µM
[28]
  TGI: > 100 µM
[29]
  TGI: > 100 µM
[30]
  TGI: > 100 µM
[31]
  TGI: > 100 µM
[32]
  TGI: > 100 µM
[33]
  TGI: > 100 µM
[34]
  TGI: > 100 µM
[35]
  TGI: > 100 µM
[36]
  TGI: > 100 µM
[37]
  TGI: > 100 µM
[38]
  TGI: > 100 µM
[39]
  TGI: > 100 µM
[40]
  TGI: > 100 µM
[41]
  TGI: > 100 µM
[42]
  TGI: > 100 µM
[43]
  TGI: > 100 µM
[44]
  TGI: > 100 µM
[45]
  TGI: > 100 µM
[46]
  TGI: > 100 µM
[47]
  TGI: > 100 µM
[48]
  TGI: > 100 µM
[49]
  TGI: > 100 µM
[50]
  TGI: > 100 µM
[51]
  TGI: > 100 µM
[52]
  TGI: > 100 µM
[53]
  TGI: > 100 µM
[54]
  TGI: > 100 µM
[55]
  TGI: > 100 µM
[56]
  TGI: > 100 µM
[57]
  TGI: > 100 µM
[58]
  TGI: > 100 µM
[59]
  TGI: > 100 µM
